PMC9182104 (Molecules, 2022)
Several values for one entry are separate records, joined by “and”; a condition that tells them apart may be missing. Equal entries are not always repeated. Where two headings read alike, the source gives them in different places.

Tests used:
[1] = biological target: PDE5A (Homo sapiens, UniProt O76074); test: Enzymatic assay of PDE5A (3H-cGMP substrate); type: biochemical; conditions: for inhibition at 0.1 µM / inhibition at 0.5 µM: 0.25 h; for IC50: PDE5, mean ± SD of three independent experiments
[2] = Rat liver microsomal stability; type: in vitro ADME; conditions: rat liver microsomes, compound 0.5 μM; read-out: T1/2 in RLM
[3] = cited from earlier work
[4] = system: fibrosis markers α-SMA and FN; parameters: method as in earlier work; conditions: rat, bleomycin-induced pulmonary fibrosis; cited from earlier work
[5] = PDE5, compound at 0.1 μM, read-out: Inhibition Ratio (%) 0.1 μM
[6] = PDE5, compound at 0.5 μM, read-out: Inhibition Ratio (%) 0.5 μM

| SMILES | inhibition at 0.1 µM [1, 5] [%] | inhibition at 0.5 µM [1, 6] [%] | IC50 [1] | also measured |
| --- | --- | --- | --- | --- |
| OCCN(CCO)c1nc(N2CCOCC2)c2nc(N(CCO)CCO)nc(N3CCOCC3)c2n1 [4a, 2,2′,2″,2‴-((4,8-dimorpholinopyrimido[5,4-d]pyrimidine-2,6-diyl)bis(azanetriyl))tetrakis(ethan-1-ol)] | 0 | 40 | > 500 nM | – |
| OCCN(CCO)c1nc(N2CCSCC2)c2nc(N(CCO)CCO)nc(N3CCSCC3)c2n1 [4b, 2,2′,2″,2‴-((4,8-dithiomorpholinopyrimido[5,4-d]pyrimidine-2,6-diyl)bis(azanetriyl))tetrakis(ethan-1-ol)] | 53 | 75 | 64 nM and 113 nM | half-life at 0.5 μM [2]: 7 min |
| OCCN(CCO)c1nc(N2CCC(F)CC2)c2nc(N(CCO)CCO)nc(N3CCC(F)CC3)c2n1 [4c, 2,2′,2″,2‴-((4,8-bis(4-fluoropiperidin-1-yl)pyrimido[5,4-d]pyrimidine-2,6-diyl)bis(azanetriyl))tetrakis(ethan-1-ol)] | 31 | 62 | 343 ± 18 nM | half-life at 0.5 μM [2]: 44 min |
| OCCN(CCO)c1nc(N2CCC(F)(F)CC2)c2nc(N(CCO)CCO)nc(N3CCC(F)(F)CC3)c2n1 [4d, 2,2′,2″,2‴-((4,8-bis(4,4-difluoropiperidin-1-yl)pyrimido[5,4-d]pyrimidine-2,6-diyl)bis(azanetriyl))tetrakis(ethan-1-ol)] | 41 | 72 | 362 ± 81 nM | half-life at 0.5 μM [2]: 19 min |
| OCCN(CCO)c1nc(N2CCCC2)c2nc(N(CCO)CCO)nc(N3CCCC3)c2n1 [4e, 2,2′,2″,2‴-((4,8-di(pyrrolidin-1-yl)pyrimido[5,4-d]pyrimidine-2,6-diyl)bis(azanetriyl))tetrakis(ethan-1-ol)] | 7 | < 50 | – | – |
| CC1CCCN1c1nc(N(CCO)CCO)nc2c(N3CCCC3C)nc(N(CCO)CCO)nc12 (stereo not shown) [4f, 2,2′,2″,2‴-((4,8-bis(2-methylpyrrolidin-1-yl)pyrimido[5,4-d]pyrimidine-2,6-diyl)bis(azanetriyl))tetrakis(ethan-1-ol)] | 14 | 60 | 478 ± 3 nM | – |
| OCCN(CCO)c1nc(N2CCSC2)c2nc(N(CCO)CCO)nc(N3CCSC3)c2n1 [4g, 2,2′,2″,2‴-((4,8-di(thiazolidin-3-yl)pyrimido[5,4-d]pyrimidine-2,6-diyl)bis(azanetriyl))tetrakis(ethan-1-ol)] | 60 | 93 | 113 nM and 64 nM | half-life at 0.5 μM [2]: 5 min |
| OCCN(CCO)c1nc(N2CCC(F)(F)C2)c2nc(N(CCO)CCO)nc(N3CCC(F)(F)C3)c2n1 [4i, 2,2′,2″,2‴-((4,8-bis(3,3-difluoropyrrolidin-1-yl)pyrimido[5,4-d]pyrimidine-2,6-diyl)bis(azanetriyl))tetrakis(ethan-1-ol)] | 24 | 61 | 353 ± 57 nM | – |
| OC1CCN(c2nc(N3CCSC3)c3nc(N4CCC(O)CC4)nc(N4CCSC4)c3n2)CC1 [5a, 1,1′-(4,8-di(thiazolidin-3-yl)pyrimido[5,4-d]pyrimidine-2,6-diyl)bis(piperidin-4-ol)] | 29 | 32 | – | – |
| OCC1CCCN(c2nc(N3CCSC3)c3nc(N4CCCC(CO)C4)nc(N4CCSC4)c3n2)C1 (stereo not shown) [5b, ((4,8-di(thiazolidin-3-yl)pyrimido[5,4-d]pyrimidine-2,6-diyl)bis(piperidine-1,3-diyl))dimethanol] | 52 | 79 | 167 ± 41 nM | – |
| OC1CCCN(c2nc(N3CCC(F)CC3)c3nc(N4CCCC(O)C4)nc(N4CCC(F)CC4)c3n2)C1 (stereo not shown) [6a, 1,1′-(4,8-bis(4-fluoropiperidin-1-yl)pyrimido[5,4-d]pyrimidine-2,6-diyl)bis(piperidin-3-ol)] | 7 | 48 | – | – |
| OCC1CCCN(c2nc(N3CCC(F)CC3)c3nc(N4CCCC(CO)C4)nc(N4CCC(F)CC4)c3n2)C1 (stereo not shown) [6b, ((4,8-bis(4-fluoropiperidin-1-yl)pyrimido[5,4-d]pyrimidine-2,6-diyl)bis(piperidine-1,3-diyl))dimethanol] | 0 | 7 | – | – |
| OC1CCN(c2nc(N3CCC(F)CC3)c3nc(N4CCC(O)C4)nc(N4CCC(F)CC4)c3n2)C1 (stereo not shown) [6c, 1,1′-(4,8-bis(4-fluoropiperidin-1-yl)pyrimido[5,4-d]pyrimidine-2,6-diyl)bis(pyrrolidin-3-ol)] | 5 | 20 | – | – |
| OCCN(CCO)c1nc(N2CCSC2)c2nc(N(CCO)CCO)nc(N3CCSCC3)c2n1 [9a, 2,2′,2″,2‴-((4-(thiazolidin-3-yl)-8-thiomorpholinopyrimido[5,4-d]pyrimidine-2,6-diyl)bis(azanetriyl))tetrakis(ethan-1-ol)] | 45 | 91 | 100 ± 1 nM | half-life at 0.5 μM [2]: 4 min |
| OCCN(CCO)c1nc(N2CC[C@H](F)C2)c2nc(N(CCO)CCO)nc(N3CCSC3)c2n1 [9b, (S)-2,2′,2″,2‴-((4-(3-fluoropyrrolidin-1-yl)-8-(thiazolidin-3-yl)pyrimido[5,4-d]pyrimidine-2,6-diyl)bis(azanetriyl))tetrakis(ethan-1-ol)] | 33 | 81 | 94 ± 9 nM | half-life at 0.5 μM [2]: 10 min |
| C[C@H]1CCCN1c1nc(N(CCO)CCO)nc2c(N3CCC[C@@H]3C)nc(N(CCO)CCO)nc12 [(R)-4f, 2,2′,2″,2‴-((4,8-bis((S)-2-methylpyrrolidin-1-yl)pyrimido[5,4-d]pyrimidine-2,6-diyl)bis(azanetriyl))tetrakis(ethan-1-ol)] | – | – | – | Inhibition Ratio (%) 0.1 μM ([1]; PDE5, compound at 0.1 μM): 27%; Inhibition Ratio (%) 0.5 μM ([1]; PDE5, compound at 0.5 μM): 44% |
| OCCN(CCO)c1nc(N2CC[C@@H](F)C2)c2nc(N(CCO)CCO)nc(N3CC[C@@H](F)C3)c2n1 [(R)-4h, 2,2′,2″,2‴-((4,8-bis((R)-3-fluoropyrrolidin-1-yl)pyrimido[5,4-d]pyrimidine-2,6-diyl)bis(azanetriyl))tetrakis(ethan-1-ol)] | 27 | 44 | – | – |
| OC[C@@H]1CCCN(c2nc(N3CCSC3)c3nc(N4CCC[C@@H](CO)C4)nc(N4CCSC4)c3n2)C1 [(R)-5b, ((3R,3′R)-(4,8-di(thiazolidin-3-yl)pyrimido[5,4-d]pyrimidine-2,6-diyl)bis(piperidine-1,3-diyl))dimethanol] | – | – | 109 ± 20 nM | – |
| O[C@@H]1CCN(c2nc(N3CCSC3)c3nc(N4CC[C@@H](O)C4)nc(N4CCSC4)c3n2)C1 [(R)-5c, (3R,3′R)-1,1′-(4,8-di(thiazolidin-3-yl)pyrimido[5,4-d]pyrimidine-2,6-diyl)bis(pyrrolidin-3-ol)] | 45 | 74 | 198 ± 45 nM | – |
| O[C@@H]1CCCN(c2nc(N3CCC(F)CC3)c3nc(N4CCC[C@@H](O)C4)nc(N4CCC(F)CC4)c3n2)C1 [(R)-6a, (3R,3′R)-1,1′-(4,8-bis(4-fluoropiperidin-1-yl)pyrimido[5,4-d]pyrimidine-2,6-diyl)bis(piperidin-3-ol)] | 8 | 36 | – | – |
| C[C@H]1CCCN1c1nc(N(CCO)CCO)nc2c(N3CCC[C@@H]3C)nc(N(CCO)CCO)nc12 [(S)-4f, 2,2′,2″,2‴-((4,8-bis((S)-2-methylpyrrolidin-1-yl)pyrimido[5,4-d]pyrimidine-2,6-diyl)bis(azanetriyl))tetrakis(ethan-1-ol)] | 16 | 42 | – | – |
| OCCN(CCO)c1nc(N2CC[C@H](F)C2)c2nc(N(CCO)CCO)nc(N3CC[C@H](F)C3)c2n1 [(S)-4h, 2,2′,2″,2‴-((4,8-bis((S)-3-fluoropyrrolidin-1-yl)pyrimido[5,4-d]pyrimidine-2,6-diyl)bis(azanetriyl))tetrakis(ethan-1-ol)] | 34 | 55 | 332 ± 56 nM | half-life at 0.5 μM [2]: 67 min |
| OC[C@H]1CCCN(c2nc(N3CCSC3)c3nc(N4CCC[C@H](CO)C4)nc(N4CCSC4)c3n2)C1 [(S)-5b, ((3S,3′S)-(4,8-di(thiazolidin-3-yl)pyrimido[5,4-d]pyrimidine-2,6-diyl)bis(piperidine-1,3-diyl))dimethanol] | 13 | 34 | – | – |
| O[C@H]1CCN(c2nc(N3CCSC3)c3nc(N4CC[C@H](O)C4)nc(N4CCSC4)c3n2)C1 [(S)-5c, (3S,3′S)-1,1′-(4,8-di(thiazolidin-3-yl)pyrimido[5,4-d]pyrimidine-2,6-diyl)bis(pyrrolidin-3-ol)] | 36 | 49 | – | – |
| OCCN(CCO)c1nc(N2CCCCC2)c2nc(N(CCO)CCO)nc(N3CCCCC3)c2n1 [DIP, Dipyridamole, reference compound] | – | – | – | solubility in water [3]: practically insoluble in water; inhibition at 0.1 µM ([1]; read-out: Inhibition Ratio (%) 0.1 μM, PDE5, compound at 0.1 μM): 17%; inhibition at 0.5 µM ([1]; read-out: Inhibition Ratio (%) 0.5 μM, PDE5, compound at 0.5 μM): 84%; levels of fibrosis markers α-SMA and FN [4]: significantly decreased |
